Experimental data from patent publication US7585859B2, “PDE4B inhibitors and uses therefor” (Plexxikon, Inc., priority 2004, dated 2009).
Like-named read-outs stand apart in the source and are kept apart here.

Assays:
[1] = molecular target: T1, PDE4B: The catalytic domain of human PDE4B from S152-S528 (Homo sapiens, UniProt Q07343); assay: PDE4 IC50 determination by Scintillation Proximity Assay, PDE4B; type: biochemical
T1 construct: His6 (N); thrombin cleavage site (N); made in house; host or cells: E. coli
Procedure, shortened: (§1)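 Enzyme was added to compound and [^3H]cAMP, then incubated 30 min at 30° (PDE4B 80 ng/ml; PDE4D 4 ng/ml). Product [^3H]AMP bound to SPA beads and was counted. IC50 was fitted by non-linear regression against DMSO and roflumilast controls.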

[2] = molecular target: T2, full-length human PDE4B2 isozyme (Homo sapiens, UniProt Q07343); assay: PDE4 IC50 determination by Scintillation Proximity Assay, PDE4B2; type: biochemical
T2 construct: The full-length human PDE4B2 isozyme; His6 (N); TEV cleavage site (N); made in house; host or cells: baculovirus infected insect cells (unpurified lysate)
Procedure, shortened: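 Unpurified His6-TEV-tagged full-length human PDE4B2 from baculovirus-infected insect cell lysate (2.5 μl of 50% glycerol stock/ml) hydrolysed [3H]cAMP in 50 mM Tris pH 7.5, 8.3 mM MgCl, 1.7 mM EGTA, 0.01% BSA for 30 min at 30°. Stopped with SPA beads in 18 mM ZnSO4; [3H]AMP scintillation counted, IC50 by non-linear regression.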

[3] = tested on: TNF alpha production in LPS-stimulated human blood (Buffy coat); assay: TNF alpha production by stimulation with LPS in whole blood cultures; type: cell-based
Experimental: Compounds were assayed to generate IC50 numbers as described in Example 54, using the following assay protocol (see Tables 3B and 4B for compounds and results).
Protocol • 1) Obtained 20 mM DMSO aliquots of desired concentrations of compounds (see Tables 3B and 4B for compounds tested and results). Placed 2 μl/well compound in DMSO in the top row of the dilution plate. Added 98 μl of RPMI 1640 media w/2.5% heat inactivated FBS.
2) Made the same media with 2% DMSO in it. Added 60 μl/well to well to make compound titration. Took 30 μl of top row and did a 1:3 dilution down the plate. In column 11 added 4 wells of 50 μM roflumilast and piclamilast. In column 12 added 2% DMSO media.
3) Transfered 20 μl/well into assay plates in duplicate.
4) Obtained human Buffy coat.
5) Diluted blood with 7 volumes of RPMI 1640 media with 1% P/S and 2.5% heat inactivated FBS (a 1:8 dilution)
6) Added160 μl/well of diluted blood to the assay plates.
7) Incubated for 1 hour at 37 degrees 5% CO2
8) Diluted LPS (which was already diluted to 1 mg/ml in PBS, 20 μl aliquots frozen −20 C.) to 10× desired final concentration to make a […] dilution (final concentration should be 100 ng/ml).
9) After 1 hour incubation added 20 μl/well of LPS to plates. A non-LPS treated background was also prepared. Samples were put on the shaker for a one minute 900 rpm.
10) Incubated for 4 hours in incubator.
11) After incubation, put on the shaker for a one minute 900 rpm and spun plate at 100 g for 10 minutes, Decel 5.
12) Carefully pipetted the top 75 μl supernatant into a new plate. Samples were frozen as needed.
Biosource hu-TNF ALPHA ELISA
• REAGENTS USED • DPBS 10×: VWR45000-428 (dilute 1:10 with Millipore Water) • TWEEN 20: FISHER BP337-500 • CAPTURE AND DETECTION ANTIBODIES: R&D DY510E • STREP-HRP: Biosource part SNN4004X • COLOR REAGENTS: R&D DY994 • STOP SOLUTION: from chemistry, or R&D DY999 • 1) Thawed samples to RT as needed. • 2) Added 50 μl Incubation buffer/well. • 3) Added 50 μl blood samples +50 μl Diluent buffer • 4) Incubated 2 hours at room temp. • 5) Washed the plate 4× with 300 μl/well wash buffer with microfill. Wash buffer was DPBS with 0.05% Tween pH 7.2-7.4 • 6) Added 100 μl biotinylated anti-TNFalpha • 7) Incubateed 1 hours at room temp. • 8) Washed the plate 4× with 300 μl/well wash buffer with microfill. Wash buffer was DPBS with 0.05% Tween pH 7.2-7.4 • 9) Added^100 μl Streptavidin-HRP working solution • 10) Incubated for 30 minutes at room temp. • 11) Washed the plate 4× with 300 μl/well wash buffer with microfill. Wash buffer was DPBS with 0.05% Tween pH 7.2-7.4 • 12) Added 100 μl Chromagen • 13) Incubated in the dark for 30 minutes until the blue color developed satisfactorily. • 14) Added 100 μl/well stop solution (2 N H2SO4). • 15) Read plate on WallacVictor at 450 nm for 0.1 sec/well

PDE4D = molecular target: T3, PDE4D (Homo sapiens, UniProt Q08499); assay: PDE4 IC50 determination by Scintillation Proximity Assay, PDE4D; type: biochemical
T3 construct: PDE4D: The catalytic domain of human PDE4B from S3 16-V692; His6 (N); thrombin cleavage site (N); made in house; host or cells: E. coli
Procedure, shortened: as §1

[4] = molecular target: T4, full-length human PDE4D5 isozyme (Homo sapiens, UniProt Q08499); assay: PDE4 IC50 determination by Scintillation Proximity Assay, PDE4D5; type: biochemical
T4 construct: The full-length human PDE4D5 isozyme; His6 (N); TEV cleavage site (N); made in house; host or cells: baculovirus infected insect cells (unpurified lysate)
Procedure, shortened: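 Unpurified His6-tagged full-length human PDE4D5 from baculovirus-infected insect cell lysate, 0.083 μl glycerol stock/ml, hydrolysed [3H]cAMP in Tris pH 7.5/MgCl/EGTA buffer, 30 min at 30°. ZnSO4/SPA beads stop; [3H]AMP counted. Controls: DMSO and roflumilast; 11-point duplicate curves, nonlinear-regression IC50.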

[5] = Table 1B, Formula I compounds, read-out: IC50 PDE4B
[6] = Table 1B, Formula I compounds, read-out: IC50 PDE4B2
[7] = Homo sapiens, Table 1B, Formula I compounds, read-out: IC50 h TNFα
[8] = Table 1B, Formula I compounds, read-out: IC50 PDE4D
[9] = Table 1B, Formula I compounds, read-out: IC50 PDE4D5
[10] = human whole blood, LPS 100 ng/ml, read-out: IC 50 vs. indicated assay h TNFα
[11] = second part of Table 2B (2-23 to 2-103), column 3, column is PDE4B in first part, read-out: IC 50 vs. indicated assay h TNFα
[12] = second part of Table 2B (2-23 to 2-103), column 4, column is PDE4B2 in first part, read-out: IC 50 vs. indicated assay h TNFα
[13] = second part of Table 2B (2-23 to 2-103), column 5, column is PDE4D in first part, read-out: IC 50 vs. indicated assay h TNFα

T2 sequence (Q07343 1-564 isoform Q07343-2): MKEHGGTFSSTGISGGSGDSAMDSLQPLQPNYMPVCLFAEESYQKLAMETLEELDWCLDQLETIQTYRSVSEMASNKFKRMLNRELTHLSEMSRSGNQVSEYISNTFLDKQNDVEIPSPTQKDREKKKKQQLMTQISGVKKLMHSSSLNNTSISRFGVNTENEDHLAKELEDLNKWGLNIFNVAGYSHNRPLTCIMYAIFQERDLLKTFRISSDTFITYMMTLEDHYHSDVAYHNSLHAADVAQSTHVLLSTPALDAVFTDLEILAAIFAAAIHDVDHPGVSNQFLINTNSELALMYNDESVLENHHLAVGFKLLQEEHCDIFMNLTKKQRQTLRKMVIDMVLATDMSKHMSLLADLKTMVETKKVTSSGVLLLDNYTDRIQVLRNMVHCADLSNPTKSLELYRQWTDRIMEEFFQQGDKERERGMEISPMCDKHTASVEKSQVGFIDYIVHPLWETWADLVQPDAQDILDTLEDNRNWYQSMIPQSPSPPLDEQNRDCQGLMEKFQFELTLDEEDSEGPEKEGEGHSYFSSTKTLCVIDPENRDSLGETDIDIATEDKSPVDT
T1 sequence (Q07343 with tags, fused parts or gaps): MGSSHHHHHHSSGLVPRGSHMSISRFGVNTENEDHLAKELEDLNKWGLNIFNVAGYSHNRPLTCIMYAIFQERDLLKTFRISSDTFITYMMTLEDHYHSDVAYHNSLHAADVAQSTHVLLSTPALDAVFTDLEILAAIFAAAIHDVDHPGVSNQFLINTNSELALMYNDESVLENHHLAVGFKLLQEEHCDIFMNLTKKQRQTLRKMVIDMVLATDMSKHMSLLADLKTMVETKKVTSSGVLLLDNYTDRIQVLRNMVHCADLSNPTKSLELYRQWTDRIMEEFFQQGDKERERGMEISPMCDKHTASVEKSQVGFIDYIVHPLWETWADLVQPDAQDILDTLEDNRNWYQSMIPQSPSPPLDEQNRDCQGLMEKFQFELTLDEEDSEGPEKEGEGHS
T3 sequence (Q08499 380-756): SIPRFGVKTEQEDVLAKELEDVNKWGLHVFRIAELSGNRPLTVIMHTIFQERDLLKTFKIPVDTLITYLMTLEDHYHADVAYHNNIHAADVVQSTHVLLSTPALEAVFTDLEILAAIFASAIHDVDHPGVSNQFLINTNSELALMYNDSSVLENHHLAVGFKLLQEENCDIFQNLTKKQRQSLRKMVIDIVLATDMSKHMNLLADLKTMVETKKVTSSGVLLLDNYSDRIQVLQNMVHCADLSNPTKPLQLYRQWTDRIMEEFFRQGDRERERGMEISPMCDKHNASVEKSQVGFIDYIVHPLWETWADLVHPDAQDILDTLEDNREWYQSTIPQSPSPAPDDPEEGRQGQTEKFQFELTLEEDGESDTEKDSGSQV
T4 sequence (Q08499 1-745 isoform Q08499-6): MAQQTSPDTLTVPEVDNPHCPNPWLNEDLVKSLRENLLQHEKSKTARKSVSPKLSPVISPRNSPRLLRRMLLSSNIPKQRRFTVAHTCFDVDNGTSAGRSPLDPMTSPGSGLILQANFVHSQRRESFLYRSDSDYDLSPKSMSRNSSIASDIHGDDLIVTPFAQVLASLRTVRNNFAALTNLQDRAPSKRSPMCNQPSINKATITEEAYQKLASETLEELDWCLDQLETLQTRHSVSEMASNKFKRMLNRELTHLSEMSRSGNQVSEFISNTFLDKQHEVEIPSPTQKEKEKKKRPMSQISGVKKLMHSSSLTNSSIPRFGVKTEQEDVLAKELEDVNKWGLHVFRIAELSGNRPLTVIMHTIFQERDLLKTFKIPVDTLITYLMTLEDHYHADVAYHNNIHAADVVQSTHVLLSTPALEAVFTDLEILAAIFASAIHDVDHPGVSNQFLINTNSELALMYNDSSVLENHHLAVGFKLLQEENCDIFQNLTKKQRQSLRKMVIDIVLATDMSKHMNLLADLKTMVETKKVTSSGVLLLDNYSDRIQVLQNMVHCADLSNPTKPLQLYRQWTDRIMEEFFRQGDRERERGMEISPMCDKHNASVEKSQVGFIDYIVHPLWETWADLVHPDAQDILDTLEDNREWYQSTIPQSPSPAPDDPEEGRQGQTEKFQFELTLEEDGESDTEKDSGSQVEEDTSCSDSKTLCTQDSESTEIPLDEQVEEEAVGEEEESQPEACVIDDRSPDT

SMILES	IC50 [1, 5] [µM]	IC50 [2, 6] [µM]	IC50 [3, 7] [µM]	IC50 (PDE4D; [8]) [µM]	IC50 [4, 9] [µM]	IC50 ([1]; first part of Table 2B (2-1 to 2-22), read-out: IC 50 vs. indicated assay PDE4B) [µM]	IC50 ([2]; first part of Table 2B (2-1 to 2-22), read-out: IC 50 vs. indicated assay PDE4B2) [µM]	IC50 [3, 10] [µM]	IC50 ([4]; first part of Table 2B (2-1 to 2-22), read-out: IC 50 vs. indicated assay PDE4D5) [µM]	IC50 [1, 11] [µM]	IC50 [2, 12] [µM]	IC50 (PDE4D; [13]) [µM]
COc1ccc(OC)c(C(=O)c2sc(NC3CCCC3)c(C#N)c2N)c1 [Compound 1-40]	< 10	< 10	> 10	< 10	< 10	–	–	–	–	–	–	–
Cc1nc(-c2cnccn2)sc1C(=O)c1sc(NC2CCCC2)c(C#N)c1N [Compound 1-219, 4-Amino-2-cyclopentylamino-5-(4-methyl-2-pyrazin-2-yl-thiazole-5-carbonyl)-thiophene-3-carbonitrile]	< 10	< 10	< 10	< 10	< 10	–	–	–	–	–	–	–
N#Cc1c(NC2CCCC2)sc(C(=O)c2cc(-c3ccc([N+](=O)[O-])cc3)no2)c1N [Compound 1-220, 4-Amino-2-cyclopentylamino-5-[3-(4-nitro-phenyl)-isoxazole-5-carbonyl]-thiophene-3-carbonitrile]	< 10	< 10	> 10	> 10	> 10	–	–	–	–	–	–	–
CC(C)C(C)Nc1sc(C(=O)c2cc(-c3ccccc3)no2)c(N)c1C#N (stereo not drawn) [Compound 1-223, 4-Amino-2-(1,2-dimethyl-propylamino)-5-(3-phenyl-isoxazoie-5-carbonyl)-thiophene-3-carbonitrile]	< 10	< 10	> 10	> 10	> 10	–	–	–	–	–	–	–
CC(C)Nc1sc(C(=O)c2cc(-c3ccc(Cl)c(Cl)c3)no2)c(N)c1C#N [Compound 1-225]	< 10	< 10	> 10	> 10	> 10	–	–	–	–	–	–	–
COc1ccccc1Nc1sc(C(=O)c2cc(-c3ccccc3)no2)c(N)c1C#N [Compound 1-242]	< 10	< 10	< 10	–	< 10	–	–	–	–	–	–	–
CCC(C)Nc1sc(C(=O)c2cc(-c3ccccc3)no2)c(N)c1C(N)=O (stereo not drawn) [Compound 1-244, 4-Amino-2-sec-butylamino-5-(3-phenyl-isoxazole-5-carbonyl)-thiophene-3-carboxylic acid amide]	< 10	< 10	< 10	< 10	< 10	–	–	–	–	–	–	–
CCC(C)Nc1sc(C(=O)c2cc(-c3ccc(Cl)c(Cl)c3)no2)c(N)c1C(N)=O (stereo not drawn) [Compound 1-249, 4-Amino-2-sec butylamino-5-[3-(3,4-dichloro-phenyl)-isoxazole-5-carbonyl]-thiophene-3-carboxylic acid amide]	< 10	–	> 10	< 10	> 10	–	–	–	–	–	–	–
Nc1nc(NC2CCCC2)sc1C(=O)c1cc(-c2ccccc2)cs1 [Compound 2-19, (4-Amino-2-cyclopentylamino-thiazol-5-yl)-(4-phenyl-thiophen-2yl)-methanone]	–	–	–	–	–	< 10	< 10	< 10	< 10	–	–	–

Results, then the compound that gave them:

IC50 [1, 5] [µM]	IC50 [2, 6] [µM]	IC50 [3, 7] [µM]	IC50 (PDE4D; [8]) [µM]	IC50 [4, 9] [µM]	IC50 ([1]; first part of Table 2B (2-1 to 2-22), read-out: IC 50 vs. indicated assay PDE4B) [µM]	IC50 ([2]; first part of Table 2B (2-1 to 2-22), read-out: IC 50 vs. indicated assay PDE4B2) [µM]	IC50 [3, 10] [µM]	IC50 ([4]; first part of Table 2B (2-1 to 2-22), read-out: IC 50 vs. indicated assay PDE4D5) [µM]	IC50 [1, 11] [µM]	IC50 [2, 12] [µM]	IC50 (PDE4D; [13]) [µM]	SMILES
< 10	< 10	< 10	< 10	< 10	–	–	–	–	–	–	–	N#Cc1c(Nc2ccccc2)sc(C(=O)c2ccc(Cl)cc2)c1N [Compound 1-20, 4-Amino-5-(4-chloro-benzoyl)-2-phenylamino-thiophene-3-carbonitrile]
< 10	< 10	< 10	< 10	< 10	–	–	–	–	–	–	–	COc1ccc(Nc2sc(C(=O)c3ccccc3Cl)c(N)c2C#N)cc1 [Compound 1-110, 4-Amino-5-(2-chloro-benzoyl)-2-(4-methoxy-phenylamino)-thiophene-3-carbonitrile]
< 10	< 10	> 10	< 10	< 10	–	–	–	–	–	–	–	CC(C)CNc1sc(C(=O)c2cc(-c3ccccc3)no2)c(N)c1C#N [Compound 1-209, 4-Amino-2-isobutylamino-5-(3-phenyl-isoxazole-5-carbonyl)-thiophene-3-carbonitrile]
< 10	< 10	> 10	< 10	> 10	–	–	–	–	–	–	–	CCC(C)Nc1sc(C(=O)c2cc(-c3ccccc3)no2)c(N)c1C#N (stereo not drawn) [Compound 1-222, 4-Amino-2-sec-butylamino-5-(3-phenyl-isoxazole-5-carbonyl)-thiophene-3-carbonitrile]
< 10	< 10	< 10	–	< 10	–	–	–	–	–	–	–	Cc1c(NC2CCCC2)sc(C(=O)c2cc(-c3ccccc3)no2)c1N [Compound 1-240, (3-Amino-5-cyclopentylamino-4-methyl-thiophen-2-yl)-(3-phenyl-isoxazol-5-yl)-methanone]
< 10	< 10	> 10	–	> 10	–	–	–	–	–	–	–	CCc1c(NC2CCCC2)sc(C(=O)c2cc(-c3ccccc3)no2)c1N [Compound 1-241, (3-Amino-5-cyclopentylamino-4-ethyl-thiophen-2-yl)-(3-phenyl-isoxazole-5-yl)-methanone]
–	> 10	> 10	–	> 10	–	–	–	–	–	–	–	NC(=O)c1c(N)sc(C(=O)c2cc(-c3ccccc3)no2)c1N [Compound 1-255, 2,4-Diamino-5-(3-phenyl-isoxazole-5-carbonyl)-thiophene-3-carboxylic acid amide]
–	–	–	–	–	–	–	> 10	–	< 10	< 10	< 10	Nc1nc(Nc2ccc(C(=O)O)cc2)sc1C(=O)c1ccccc1 [Compound 2-35, 4-(4-Amino-5-benzoyl-thiazol-2-ylamino)-benzoic acid]
–	–	–	–	–	–	–	> 10	–	< 10	< 10	< 10	Nc1nc(NC2CCCC2)sc1C(=O)c1ccc(Oc2ccccc2)cc1 [Compound 2-76, (4-Amino-2-cyclopentylamino-thiazol-5-yl)-(4-phenoxy-phenyl)-methanone]
